Columns and labels:
Assay in all cases: MIC by microdilution method, non-Helicobacter pylori bacteria
Assay type in all cases: cell-based
Parameters in all cases: key: +: Bacterial growth; −: No bacterial growth
Conditions in all cases: 72 h
[1] = test system: Moraxella catarrhalis (ATCC25238)
Protocol: (§1) 2.2 Detection of minimum inhibitory concentration (MIC, 100 µL system) of zinc linolenate for non-Helicobacter pylori bacteria by microdilution method
(§2) (1) Zinc linolenate (2 mg/mL) is prepared.
(§3) (3) Bacterial solution preparation: the non-Helicobacter pylori grown in a log phase on a solid plate is taken to make a bacterial suspension with a BHI culture medium, the absorbance (OD600) is adjusted to 0.3 (1×10^8 CFU/mL), and the bacterial suspension is diluted 100 times to 1×10^6 CFU/mL for use.
(§4) (4) Inoculation of bacterial solution: 10 μL of bacterial solution above is taken and added to the 1-8th wells (the concentration of the bacterial solution per well is about 1.0×10^5 CFU/mL). Culture is performed for 72 h to judge the result. The drug concentrations of the first-seventh wells are 128, 64, 32, 16, 8, 4, and 2 μg/mL, respectively.
(§5) The experiment only makes sense when the bacteria obviously grow in the 8th well, i.e. the positive control well (without antibiotics). When a single drift occurs in the microdilution method, the maximum drug concentration that inhibits bacterial growth should be recorded. If there are multiple drifts, the results should not be reported and the experiment should be repeated. The experiment is repeated 3 times for each drug.

Lactobacillus = test system: Lactobacillus
Protocol: as §1, §2, §3, §4, §5

Candida albicans = test system: Candida albicans
Protocol: as §1, §2, §3, §4, §5

[2] = test system: Mycobacterium smegmatis (MC^2 155)
Protocol: as §1, §2, §3, §4, §5

[3] = test system: Pseudomonas aeruginosa (PA01)
Protocol: as §1, §2, §3, §4, §5

[4] = test system: Enterobacter cloacae (ATCC13047)
Protocol: as §1, §2, §3, §4, §5

[5] = test system: Streptococcus pneumoniae (ATCC49619)
Protocol: as §1, §2, §3, §4, §5

[6] = test system: Proteus mirabilis (YF163006)
Protocol: as §1, §2, §3, §4, §5

[7] = test system: Staphylococcus aureus (ATCC6538)
Protocol: as §1, §2, §3, §4, §5

[8] = test system: Enterococcus faecalis (ATCC19434)
Protocol: as §1, §2, §3, §4, §5

[9] = test system: Escherichia coli (MG1655)
Protocol: as §1, §2, §3, §4, §5

Listeria = test system: Listeria
Protocol: as §1, §2, §3, §4, §5

[10] = test system: Klebsiella pneumoniae (YF173002)
Protocol: as §1, §2, §3, §4, §5

[11] = test system: Actinobacillus actinomycetemcomitans
Protocol: as §1, §2, §3, §4, §5

Measured: Bacterial growth

CC/C=C\C/C=C\C/C=C\CCCCCCCC(=O)[O-].CC/C=C\C/C=C\C/C=C\CCCCCCCC(=O)[O-].[Zn+2] [zinc linolenate]
+: [1]; zinc linolenate 2 μg/ml | [1]; zinc linolenate 4 μg/ml | [1]; zinc linolenate 8 μg/ml | [1]; zinc linolenate 16 μg/ml | [1]; zinc linolenate 32 μg/ml | [1]; zinc linolenate 64 μg/ml | [1]; zinc linolenate 128 μg/ml | Lactobacillus; zinc linolenate 2 μg/ml | Lactobacillus; zinc linolenate 4 μg/ml | Lactobacillus; zinc linolenate 8 μg/ml | Lactobacillus; zinc linolenate 16 μg/ml | Lactobacillus; zinc linolenate 32 μg/ml | Lactobacillus; zinc linolenate 64 μg/ml | Candida albicans; zinc linolenate 2 μg/ml | Candida albicans; zinc linolenate 4 μg/ml | Candida albicans; zinc linolenate 8 μg/ml | Candida albicans; zinc linolenate 16 μg/ml | Candida albicans; zinc linolenate 32 μg/ml | Candida albicans; zinc linolenate 64 μg/ml | Candida albicans; zinc linolenate 128 μg/ml | [2]; zinc linolenate 2 μg/ml | [2]; zinc linolenate 4 μg/ml | [2]; zinc linolenate 8 μg/ml | [2]; zinc linolenate 16 μg/ml | [2]; zinc linolenate 32 μg/ml | [2]; zinc linolenate 64 μg/ml | [2]; zinc linolenate 128 μg/ml | [3]; zinc linolenate 2 μg/ml | [3]; zinc linolenate 4 μg/ml | [3]; zinc linolenate 8 μg/ml | [3]; zinc linolenate 16 μg/ml | [3]; zinc linolenate 32 μg/ml | [3]; zinc linolenate 64 μg/ml | [3]; zinc linolenate 128 μg/ml | [4]; zinc linolenate 2 μg/ml | [4]; zinc linolenate 4 μg/ml | [4]; zinc linolenate 8 μg/ml | [4]; zinc linolenate 16 μg/ml | [4]; zinc linolenate 32 μg/ml | [4]; zinc linolenate 64 μg/ml | [4]; zinc linolenate 128 μg/ml | [5]; zinc linolenate 2 μg/ml | [5]; zinc linolenate 4 μg/ml | [5]; zinc linolenate 8 μg/ml | [5]; zinc linolenate 16 μg/ml | [5]; zinc linolenate 32 μg/ml | [5]; zinc linolenate 64 μg/ml | [5]; zinc linolenate 128 μg/ml | [6]; zinc linolenate 2 μg/ml | [6]; zinc linolenate 4 μg/ml | [6]; zinc linolenate 8 μg/ml | [6]; zinc linolenate 16 μg/ml | [6]; zinc linolenate 32 μg/ml | [6]; zinc linolenate 64 μg/ml | [6]; zinc linolenate 128 μg/ml | [7]; zinc linolenate 2 μg/ml | [7]; zinc linolenate 4 μg/ml | [7]; zinc linolenate 8 μg/ml | [7]; zinc linolenate 16 μg/ml | [7]; zinc linolenate 32 μg/ml | [7]; zinc linolenate 64 μg/ml | [7]; zinc linolenate 128 μg/ml | [8]; zinc linolenate 2 μg/ml | [8]; zinc linolenate 4 μg/ml | [8]; zinc linolenate 8 μg/ml | [8]; zinc linolenate 16 μg/ml | [8]; zinc linolenate 32 μg/ml | [8]; zinc linolenate 64 μg/ml | [9]; zinc linolenate 2 μg/ml | [9]; zinc linolenate 4 μg/ml | [9]; zinc linolenate 8 μg/ml | [9]; zinc linolenate 16 μg/ml | [9]; zinc linolenate 32 μg/ml | [9]; zinc linolenate 64 μg/ml | Listeria; zinc linolenate 2 μg/ml | Listeria; zinc linolenate 4 μg/ml | Listeria; zinc linolenate 8 μg/ml | Listeria; zinc linolenate 16 μg/ml | Listeria; zinc linolenate 32 μg/ml | Listeria; zinc linolenate 64 μg/ml | Listeria; zinc linolenate 128 μg/ml | [10]; zinc linolenate 2 μg/ml | [10]; zinc linolenate 4 μg/ml | [10]; zinc linolenate 8 μg/ml | [10]; zinc linolenate 16 μg/ml | [10]; zinc linolenate 32 μg/ml | [10]; zinc linolenate 64 μg/ml | [11]; zinc linolenate 2 μg/ml | [11]; zinc linolenate 4 μg/ml | [11]; zinc linolenate 8 μg/ml | [11]; zinc linolenate 16 μg/ml | [11]; zinc linolenate 32 μg/ml | [11]; zinc linolenate 64 μg/ml | [11]; zinc linolenate 128 μg/ml
−: Lactobacillus; zinc linolenate 128 μg/ml | [8]; zinc linolenate 128 μg/ml | [9]; zinc linolenate 128 μg/ml | [10]; zinc linolenate 128 μg/ml
